From the supplement of paper PMC10307832

What was measured:
Test in all cases: relative viability (nuclei count vs DMSO), 5 days (fraction); higher = more cells survive
Carboplatin + Bortezomib = compound: C1CC(C1)(C(=O)O)C(=O)O.[NH2-].[NH2-].[Pt+2] [Carboplatin] + CC(C)C[C@H](NC(=O)[C@H](Cc1ccccc1)NC(=O)c1cnccn1)B(O)O [Bortezomib] (partner 0.002 µM)
Outline: (§1)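 Nuclei were stained with Hoechst during a one-step fixation (final 0.05% Triton X-100, 1% formaldehyde, 1 ug/ml Hoechst) carried out 5 days after dosing, then counted on 4× images. The cells, lung cancer lines in 1536-well plates, had been dosed by pin tool the day after seeding with one drug alone or a fixed anchor-drug dose plus five library-drug doses (not always all listed) in √10 steps. Relative viability is the nuclei count in treated wells divided by that in vehicle wells, and each value is the median of duplicate plates.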

Carboplatin + Tozasertib = compound: C1CC(C1)(C(=O)O)C(=O)O.[NH2-].[NH2-].[Pt+2] [Carboplatin] + Cc1cc(Nc2cc(N3CCN(C)CC3)nc(Sc3ccc(NC(=O)C4CC4)cc3)n2)n[nH]1 [Tozasertib] (partner 0.1 µM)
Outline: as §1

GSK126 + Phenformin = compound: CC[C@H](C)N1C=C(C2=C(C=C(C=C21)C3=CN=C(C=C3)N4CCNCC4)C(=O)NCC5=C(C=C(NC5=O)C)C)C [GSK126] + N=C(N)NC(=N)NCCc1ccccc1 [Phenformin] (partner 250 µM)
Outline: as §1

GSK126 + Decitabine = compound: CC[C@H](C)N1C=C(C2=C(C=C(C=C21)C3=CN=C(C=C3)N4CCNCC4)C(=O)NCC5=C(C=C(NC5=O)C)C)C [GSK126] + Nc1ncn([C@H]2C[C@H](O)[C@@H](CO)O2)c(=O)n1 [Decitabine] (partner 2 µM)
Outline: as §1

Cell Line	relative viability (Carboplatin + Bortezomib; first compound 0.08 µM)	relative viability (Carboplatin + Bortezomib; first compound 0.253 µM)	relative viability (Carboplatin + Bortezomib; first compound 0.8 µM)	relative viability (Carboplatin + Bortezomib; first compound 2.53 µM)	relative viability (Carboplatin + Bortezomib; first compound 8 µM)	relative viability (Carboplatin + Tozasertib; first compound 0.08 µM)	relative viability (Carboplatin + Tozasertib; first compound 0.253 µM)	relative viability (Carboplatin + Tozasertib; first compound 0.8 µM)	relative viability (Carboplatin + Tozasertib; first compound 2.53 µM)	relative viability (Carboplatin + Tozasertib; first compound 8 µM)	relative viability (GSK126 + Phenformin; first compound 0.08 µM)	relative viability (GSK126 + Phenformin; first compound 0.253 µM)	relative viability (GSK126 + Phenformin; first compound 0.8 µM)	relative viability (GSK126 + Phenformin; first compound 2.53 µM)	relative viability (GSK126 + Phenformin; first compound 8 µM)	relative viability (GSK126 + Decitabine; first compound 0.08 µM)	relative viability (GSK126 + Decitabine; first compound 0.253 µM)	relative viability (GSK126 + Decitabine; first compound 0.8 µM)	relative viability (GSK126 + Decitabine; first compound 2.53 µM)	relative viability (GSK126 + Decitabine; first compound 8 µM)
LCLC-97TM1	0.723	0.62	1.25	0.844	0.375	0.235	0.292	0.249	0.192	0.212	0.359	0.459	0.455	0.389	0.374	0.237	0.257	0.218	0.24	0.253
LCLC-103H	1.13	1.33	1.06	1.24	1	0.517	0.466	0.439	0.532	0.473	0.331	0.383	0.377	0.344	0.39	0.795	0.855	0.797	0.737	0.759
LOU-NH91	0.581	0.52	0.54	0.472	0.495	0.727	0.807	0.671	0.63	0.637	0.785	0.755	0.692	0.662	0.639	0.831	0.813	0.838	0.793	0.823
LU99A	1.01	1.23	1.04	0.968	0.757	0.282	0.279	0.248	0.258	0.212	1.09	0.881	0.94	0.93	0.855	0.986	0.915	1.03	0.916	0.999
LXF-289	1.03	0.986	0.98	1.01	0.919	0.199	0.209	0.22	0.218	0.177	0.549	0.509	0.477	0.487	0.483	0.38	0.36	0.395	0.388	0.374
NCI-H23	1.1	1.11	1.08	0.861	0.784	0.4	0.315	0.385	0.356	0.317	0.843	0.792	0.738	0.761	0.77	0.314	0.337	0.3	0.268	0.334
NCI-H322M	1.26	1.23	1.2	1.22	1.14	0.534	0.532	0.56	0.481	0.479	0.826	0.787	0.849	0.875	0.817	0.656	0.676	0.758	0.733	0.754
NCI-H441	0.239	0.777	0.618	0.459	0.364	0.746	0.687	0.508	0.454	0.469	0.991	0.727	0.708	0.946	0.826	0.248	0.236	0.143	0.214	0.234
NCI-H460	1.22	1.06	0.895	0.812	0.174	0.54	0.462	0.387	0.237	0.168	0.587	0.531	0.523	0.483	0.468	0.605	0.495	0.468	0.37	0.446
NCI-H520	0.611	0.609	0.767	0.599	0.523	0.5	0.433	0.438	0.389	0.459	0.572	0.542	0.561	0.574	0.497	0.611	0.505	0.487	0.494	0.557
NCI-H596	1.21	1.27	0.989	0.886	0.73	0.985	0.98	0.907	0.77	0.491	0.913	0.761	0.751	0.948	0.829	1.09	0.882	1.04	1.05	1.06
NCI-H647	1.03	1.24	0.952	1.07	0.686	0.402	0.488	0.272	0.239	0.229	0.595	0.45	0.448	0.344	0.508	0.445	0.356	0.484	0.383	0.437
NCI-H650	0.966	0.852	0.868	0.764	0.388	0.768	0.766	0.638	0.661	0.453	0.431	0.464	0.445	0.437	0.472	0.33	0.293	0.311	0.299	0.322
NCI-H661	0.915	0.856	0.716	0.613	0.763	0.371	0.336	0.33	0.301	0.348	0.277	0.264	0.691	0.269	0.244	0.626	0.506	0.498	0.535	0.563
NCI-H727	1.08	1.01	0.88	0.774	0.471	0.572	0.653	0.54	0.562	0.624	0.469	0.622	0.587	0.624	0.533	1.01	1.03	0.804	0.89	0.864
NCI-H838	1.06	0.858	0.869	0.835	0.82	0.296	0.28	0.254	0.273	0.279	0.652	0.468	0.522	0.487	0.555	0.52	0.492	0.451	0.508	0.502
